These results are taken from patent US20120264817A1, “SOLUBILIZED FORMULATION OF DOCETAXEL WITHOUT TWEEN 80” (priority 2007, published 2012).

As usually defined, the solubility is the dissolved amount per volume that the medium holds.

Data set [1] is described as follows: solubility studies with docetaxel in solvents/excipients. The conditions noted are these: glycofurol, organic solvent or mixture. An excerpt: In some instances a solubilizer can provide sufficient degree of dissolution that a separate hydrotrope or other solubilization aid is not needed, but this is generally not the case (i.e. a separate hydrotrope is usually desirable). […] The concentration of drug in solubilizer varies depending on the lipophilicity of drug. […] We have conducted the solubility studies in these excipients to understand how different excipients containing different functional groups are contributing to the solubility of docetaxel. A solubilizer can also act as a hydrotrope (on dilution with infusion fluid) if it is used in the sufficiently large quantities. […] In the table below and the rest of this specification, the terms “solubilizer” and “hydrotrope” will be used with reference to concentrates (both initial and intermediate) unless specifically indicated otherwise or the context so requires.

A short description of data set [2]: physical stability (onset of precipitation) of initial and final dilutions of docetaxel formulations. The format is physicochemical. The procedure:
Observations: • 1. The concentrate turns waxy and viscous when stored at temperature below the room temperature, i.e., 22° C. To disperse this viscous mass, a large amount of WFI is needed to make the system suitable for subsequent dilution. So the first step of making a 10 mg/ml solution cannot be achieved with this liquid concentrate. • 2. To achieve a primary dilution of docetaxel of 10 mg/ml, the above concentrate was heated in a water bath to form a viscous liquid, and then diluted with 8 ml of water for injection. The primary dilution is stable for a period of not less than 8 hours, which was a stability condition stipulated in the innovators product. This solution, when further diluted with NS, achieves the targeted concentration range of 0.3-0.74 mg/ml of docetaxel in the final solution for administration. This solution is stable for a period of 24 hours as opposed to the stability of 4 hours with innovators product. In this example, we have achieved the target concentration of docetaxel for administration without the presence of polysorbate 80. • 3.
The concentrate is liquid at room temperature and turned waxy only when stored at 5° C. or below, but turned back to free flowing liquid in 5 minutes when kept at room temperature. • 2. During the initial dilution step to get 10 mg/ml, the contents of the vial turned into a thixotropic liquid within the vial. […]

The conditions of data set [3]: docetaxel as marketed by Sanofi-Aventis; cited from earlier work.

With `CC(=O)O[C@@]12CO[C@@H]1C[C@H](O)[C@@]1(C)C(=O)[C@H](O)C3=C(C)[C@@H](OC(=O)[C@H](O)[C@@H](NC(=O)OC(C)(C)C)c4ccccc4)C[C@@](O)([C@@H](OC(=O)c4ccccc4)[C@H]21)C3(C)C` [docetaxel, (2R,3S)—N-carboxy-3-phenylisoserine, N-tert-butyl ester, 13-ester with 5beta-20-epoxy-1,2α,4,7β,10β,13α-hexahyciroxytax-11-en-9-one 4-acetate 2-benzoate, trihydrate], the solubility in data set [1] was approximately 200 mg/mL. For the same molecule, in data set [2] (about 10 mg/ml solution in glycofurol, diluted with IV fluids), the “behaviour on dilution to administration concentrations” value is “will not precipitate out”. Moreover, the “behaviour on dilution to administration concentrations” value in data set [2] (about 200 mg/ml liquid concentrate in glycofurol, diluted with water) is recorded as “precipitates out”. In data set [3], the lipophilicity entry was “highly lipophilic” and the solubility in water entry is “practically insoluble in water”.
